Values of other authors in patent US20020119970A1, “Method for treating glaucoma IIB” (priority 2000, published 2002).

Key:
Aged Rhesus monkeys = settings: drug treated vs. control eye; baseline and pilocarpine-stimulated conditions; result referred to co-filed application "Methods for Treating Glaucoma I"
Rhesus monkeys = settings: accommodative responses to i.m. pilocarpine; result referred to co-filed application "Methods for Treating Glaucoma I"

For `Cc1sc[n+](CC(=O)c2ccccc2)c1C.[Cl-]` [4,5-dimethyl-3-(2-oxoethyl-phenethyl)thiazolium chloride], which “improvement in ophthalmologic function (fluid outflow facility)” value (Aged Rhesus monkeys) is on record?
Its value is “improvement has been illustrated”.

What about the Improvement in accommodation (Rhesus monkeys) of the same compound?
The Improvement in accommodation was “Improvement in accommodation has been illustrated”.
